How the values were obtained:
Format in all cases: cell-based
[1] = tested on: E. coli DH5α; test: Antibacterial activity: MIC and growth curve against E. coli DH5α in 96-well plate; conditions: minimal inhibitory concentration against E. coli DH5α; 96-well plate, 5×10^5 CFU/mL, 37° C., judged after 8 h
Summary of the method: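 MIC taken as lowest protein level with no bacterial growth, tracked by A600 every 30 min during 37 °C, 175 rpm culture. Two-fold protein series 50-12.5 μg/mL final, triplicate wells, against 5×10^5 CFU/mL of LB-washed mid-log cells.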

[2] = tested on: E. coli BL21; test: MIC against Gram-negative bacteria: E. coli BL21; conditions: 5×10^5 CFU/mL
Summary of the method: (§1)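 Bacteria grown in LB at 37° C with shaking to McFarland 0.5, pelleted and resuspended in fresh LB, then seeded at 5×10^5 CFU/mL per well. Purified recombinant human EGF domain proteins were two-fold serially diluted in triplicate and plates shaken at 37° C, 175 rpm. MIC is the lowest protein concentration with no bacterial growth.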

[3] = tested on: Pseudomonas aeruginosa; test: MIC against Gram-negative bacteria: Pseudomonas aeruginosa; conditions: 5×10^5 CFU/mL
Summary of the method: as §1

[4] = tested on: Klebsiella pneumonia; test: MIC against Gram-negative bacteria: Klebsiella pneumonia; conditions: 5×10^5 CFU/mL
Summary of the method: as §1

[5] = tested on: Enterobacter cloacae; test: MIC against Gram-negative bacteria: Enterobacter cloacae; conditions: 5×10^5 CFU/mL
Summary of the method: as §1

[6] = tested on: Aeromonas hydrophila; test: MIC against Gram-negative bacteria: Aeromonas hydrophila; conditions: 5×10^5 CFU/mL
Summary of the method: as §1

[7] = tested on: Citrobacter diversus; test: MIC against Gram-negative bacteria: Citrobacter diversus; conditions: 5×10^5 CFU/mL
Summary of the method: as §1

[8] = tested on: Moraxella catarrhalis; test: MIC against Gram-negative bacteria: Moraxella catarrhalis; conditions: 5×10^5 CFU/mL
Summary of the method: as §1

[9] = tested on: Proteus mirabilis; test: MIC against Gram-negative bacteria: Proteus mirabilis; conditions: 5×10^5 CFU/mL
Summary of the method: as §1

[10] = tested on: Proteus vulgaris; test: MIC against Gram-negative bacteria: Proteus vulgaris; conditions: 5×10^5 CFU/mL
Summary of the method: as §1

[11] = tested on: Serratia marcescens; test: MIC against Gram-negative bacteria: Serratia marcescens; conditions: 5×10^5 CFU/mL
Summary of the method: as §1

[12] = E. coli BL21, 10 h cultivation at 37° C.
[13] = P. aeruginosa, 10 h cultivation at 37° C.
[14] = K. pneumonia, 10 h cultivation at 37° C.
[15] = E. cloacae, 10 h cultivation at 37° C.
[16] = A. hydrophila, 10 h cultivation at 37° C.
[17] = C. diversus, 10 h cultivation at 37° C.
[18] = M. catarrhalis, 10 h cultivation at 37° C.
[19] = P. mirabilis, 10 h cultivation at 37° C.
[20] = P. vulgaris, 10 h cultivation at 37° C.
[21] = S. marcescens, 10 h cultivation at 37° C.
[22] = 10 h cultivation at 37° C., two-fold serial dilution
[23] = Pseudomonas aeruginosa, 10 h cultivation at 37° C.
[24] = Klebsiella pneumonia, 10 h cultivation at 37° C.
[25] = Enterobacter cloacae, 10 h cultivation at 37° C.
[26] = Aeromonas hydrophila, 10 h cultivation at 37° C.
[27] = Citrobacter diversus, 10 h cultivation at 37° C.
[28] = Moraxella catarrhalis, 10 h cultivation at 37° C.
[29] = Proteus mirabilis, 10 h cultivation at 37° C.
[30] = Proteus vulgaris, 10 h cultivation at 37° C.
[31] = Serratia marcescens, 10 h cultivation at 37° C.

PRT184 (DLNYCTHHSPCKNGATCSNSGQRSYTCTCRPGYTGVDCE; listed as Homo sapiens)
MIC [1]: 25 µg/mL
MIC (μg/mL) E. coli BL21 [2, 12]: 12.5 µg/mL
MIC (μg/mL) P. aeruginosa [3, 13]: 25 µg/mL
MIC (μg/mL) K. pneumonia [4, 14]: 50 µg/mL
MIC (μg/mL) E. cloacae [5, 15]: 25 µg/mL
MIC (μg/mL) A. hydrophila [6, 16]: 12.5 µg/mL
MIC (μg/mL) C. diversus [7, 17]: 25 µg/mL
MIC (μg/mL) M. catarrhalis [8, 18]: 50 µg/mL
MIC (μg/mL) P. mirabilis [9, 19]: 25 µg/mL
MIC (μg/mL) P. vulgaris [10, 20]: 12.5 µg/mL
MIC (μg/mL) S. marcescens [11, 21]: 25 µg/mL

PRT412 (LNDRCRGGGPCKQQCRDTGDEVVCSCFVGYQLLSDGVSCE; listed as Homo sapiens)
MIC [1]: 12.5 µg/mL
MIC [2, 12]: 50 µg/mL
MIC [3, 13]: 12.5 µg/mL
MIC [4, 14]: 25 µg/mL
MIC [5, 15]: 50 µg/mL
MIC [6, 16]: 25 µg/mL
MIC [7, 17]: 12.5 µg/mL
MIC [8, 18]: 25 µg/mL
MIC [9, 19]: 12.5 µg/mL
MIC [10, 20]: 25 µg/mL
MIC [11, 21]: 12.5 µg/mL

PRT1096 (QLNVCNSNPCLHGGNCEDIYSSYHCSCPLGWSGKHCE; listed as Homo sapiens)
MIC [1]: 12.5 µg/mL
MIC E. coli BL21 [2, 22]: 50 µg/mL
MIC P. aeruginosa [3, 22]: 50 µg/mL
MIC K. pneumonia [4, 22]: 50 µg/mL
MIC E. cloacae [5, 22]: 12.5 µg/mL
MIC A. hydrophila [6, 22]: 50 µg/mL
MIC C. diversus [7, 22]: 50 µg/mL
MIC M. catarrhalis [8, 22]: 12.5 µg/mL
MIC P. mirabilis [9, 22]: 12.5 µg/mL
MIC P. vulgaris [10, 22]: 12.5 µg/mL
MIC S. marcescens [11, 22]: 25 µg/mL

PRT1304 (ARDPCLGHRCHHGKCVATGTSYMCKCAEGYGGDLCD; listed as Homo sapiens)
MIC [1]: 25 µg/mL
MIC against E. coli BL21 ([2]; E. coli BL21, 96-well plate, 37° C., 10 h): 12.5 µg/mL
MIC against P. aeruginosa ([3]; Pseudomonas aeruginosa, 96-well plate, 37° C., 10 h): 25 µg/mL
MIC against K. pneumonia ([4]; Klebsiella pneumonia, 96-well plate, 37° C., 10 h): 12.5 µg/mL
MIC against E. cloacae ([5]; Enterobacter cloacae, 96-well plate, 37° C., 10 h): 12.5 µg/mL
MIC against A. hydrophila ([6]; Aeromonas hydrophila, 96-well plate, 37° C., 10 h): 25 µg/mL
MIC against C. diversus ([7]; Citrobacter diversus, 96-well plate, 37° C., 10 h): 12.5 µg/mL
MIC against M. catarrhalis ([8]; Moraxella catarrhalis, 96-well plate, 37° C., 10 h): 25 µg/mL
MIC against P. mirabilis ([9]; Proteus mirabilis, 96-well plate, 37° C., 10 h): 12.5 µg/mL
MIC against P. vulgaris ([10]; Proteus vulgaris, 96-well plate, 37° C., 10 h): 25 µg/mL
MIC against S. marcescens ([11]; Serratia marcescens, 96-well plate, 37° C., 10 h): 12.5 µg/mL

PRT1394 (VRDGCPGLCFGNGRCTLDQNGWHCVCQVGWSGTGCN; listed as Homo sapiens)
MIC [1]: 50 µg/mL
MIC against E. coli BL21 [2, 12]: 12.5 µg/mL
MIC against P. aeruginosa [3, 23]: 12.5 µg/mL
MIC against K. pneumonia [4, 24]: 50 µg/mL
MIC against E. cloacae [5, 25]: 12.5 µg/mL
MIC against A. hydrophila [6, 26]: 25 µg/mL
MIC against C. diversus [7, 27]: 50 µg/mL
MIC against M. catarrhalis [8, 28]: 25 µg/mL
MIC against P. mirabilis [9, 29]: 12.5 µg/mL
MIC against P. vulgaris [10, 30]: 25 µg/mL
MIC against S. marcescens [11, 31]: 50 µg/mL

PRT1373 (STRSCPGGCRGRGQCLDGRCVCEDGYSGEDC; listed as Homo sapiens)
MIC [1]: 25 µg/mL
MIC against E. coli BL21 [2, 12]: 12.5 µg/mL
MIC against P. aeruginosa [3, 23]: 12.5 µg/mL
MIC against K. pneumonia [4, 24]: 12.5 µg/mL
MIC against E. cloacae [5, 25]: 12.5 µg/mL
MIC against A. hydrophila [6, 26]: 12.5 µg/mL
MIC against C. diversus [7, 27]: 50 µg/mL
MIC against M. catarrhalis [8, 28]: 12.5 µg/mL
MIC against P. mirabilis [9, 29]: 25 µg/mL
MIC against P. vulgaris [10, 30]: 50 µg/mL
MIC against S. marcescens [11, 31]: 12.5 µg/mL

PRT591 (CACDPHNSLSPQCNQFTGQCPCREGFGGLMCSAAAIRQCPDRTYGDVATGCRA; listed as Homo sapiens)
MIC [1]: 25 µg/mL
MIC against E. coli BL21 ([2]; 96-well plate, 37° C., 10 h): 50 µg/mL
MIC against P. aeruginosa ([3]; 96-well plate, 37° C., 10 h): 25 µg/mL
MIC against K. pneumonia ([4]; 96-well plate, 37° C., 10 h): 12.5 µg/mL
MIC against E. cloacae ([5]; 96-well plate, 37° C., 10 h): 25 µg/mL
MIC against A. hydrophila ([6]; 96-well plate, 37° C., 10 h): 50 µg/mL
MIC against C. diversus ([7]; 96-well plate, 37° C., 10 h): 12.5 µg/mL
MIC against M. catarrhalis ([8]; 96-well plate, 37° C., 10 h): 50 µg/mL
MIC against P. mirabilis ([9]; 96-well plate, 37° C., 10 h): 12.5 µg/mL
MIC against P. vulgaris ([10]; 96-well plate, 37° C., 10 h): 50 µg/mL
MIC against S. marcescens ([11]; 96-well plate, 37° C., 10 h): 12.5 µg/mL

Source: patent US9833497B2, “Human originated EGF domain proteins and use of the same” (CHENGDU SOURCEBIO LIMITED-LIABILITY COMPANY, priority 2013, dated 2017)
